In patent publication US20040235747A1, “Methods of treating and/or preventing autoimmune diseases” (Ramot At Tel-Aviv University Ltd., priority 2003, published 2004):

Tests used:
[1] = system: splenocytes; experiment: Proliferative T-cell response of splenocytes (thymidine incorporation) from MOG-induced EAE mice; format: cell-based, mouse
Source text: FIG. 2 illustrates the thymidine incorporation into splenocytes in a MOG-induced mouse model in the presence (filled circles) or absence (open circles) of NAP.
An additional experiment included proliferative T-cell response performed as described by Offen et al., supra.

[2] = system: MOG-induced EAE mice; experiment: MOG-induced chronic autoimmune encephalomyelitis (EAE), clinical score; format: in vivo, C57/b mice; conditions: NAP intranasal 0.1 microgram/mouse daily; day 11 on, P<0.01, t-test, vs control mixture without NAP (FIG. 1)

Asn-Ala-Pro-Val-Ser-Ile-Pro-Gln [NAP]
proliferative response of splenocytes (cell proliferation, immune response) ([1]; MS model treated with NAP compared to untreated, P<0.01 (FIG. 2)): much reduced | effect of added MOG on splenocyte proliferation ([1]; splenocytes of NAP-treated animals, MOG up to 25 micrograms, untreated splenocytes showed increased proliferation even at 2 micrograms/well): no effect | clinical outcome (clinical manifestations of EAE, score 0-6) [2]: significantly improved the clinical outcome
